Data set [1] in a line: Binding affinity to FAM-TWJ-TAMRA DNA (unknown origin) assessed as change in melting temperature at 1 uM after 30 mins by FRET assay.
Data set [2] in a line: Binding affinity to TWJ-S1/TWJ-S2/TWJ-S3 DNA (unknown origin) assessed as compound-DNA complex formation at 30 uM measured after 1 hr by sybrgold-staining based PAGE analysis.
Data set [3] in a line: Binding affinity to FAM-TWJ-S1/TWJ-S2/TAMRA-TWJ-S3 DNA (unknown origin) assessed as normalized FAM intensity at 1 uM measured at 5 mins interval for 1 hr by fluorescence assay relative to control.
Data set [4] is described as follows: Binding affinity to FAM-TWJ-S1 DNA (unknown origin) assessed as normalized FAM intensity at 1 uM measured at 5 mins interval for 1 hr by fluorescence assay relative to control.
A short description of data set [5]: Binding affinity to FAM-TWJ-TAMRA DNA (unknown origin) assessed as change in melting temperature at 1 uM after 30 mins in presence of 10 uM ds26 DNA by FRET assay.
Data set [6] in a line: Binding affinity to FAM-TWJ-TAMRA DNA (unknown origin) assessed as change in melting temperature at 1 uM after 30 mins in presence of 3 uM ds26 DNA by FRET assay.
A short description of data set [7]: Selectivity ratio of compound effect for binding affinity to FAM-TWJ-TAMRA DNA (unknown origin) assessed as change in melting temperature at 1 uM in absence of 10 uM ds26 DNA to compound effect for binding affinity to FAM-TWJ-TAMRA DNA (unknown origin) assessed as change in melting temperature at 1 uM in presence of 10 uM ds26 DNA.
The nature of data set [8]: Binding affinity to ds17 DNA measured after 24 hrs by equilibrium dialysis method. (In general: In equilibrium dialysis free small molecules cross a membrane that holds back macromolecules.)
A short description of data set [9]: Binding affinity to ds17 DNA (unknown origin) assessed as equilibrium binding constant at 1:3 DNA to compound ratio after 1 hr by ESI-MS analysis.
Data set [10] is described as follows: Binding affinity to TWJ DNA (unknown origin) measured after 24 hrs by equilibrium dialysis method.
Data set [11] is described as follows: Selectivity index, ratio of LD50 for human hTERT-BJ cells to LD50 for human MCF7 cells. In kind it is toxicity. Particulars: hTERT-BJ cells versus MCF7 cells, read-out: Selectivity Index.
Data set [12] is described as follows: Binding affinity to FAM-TWJ-S1/TWJ-S2/TWJ-S3 DNA (unknown origin) assessed as compound-DNA complex formation at 12 uM measured after 1 hr in presence of ds12 DNA by sybrgold-staining based PAGE analysis.
Data set [13] in a line: Selectivity ratio of Kapp for TWJ DNA (unknown origin) to Kapp for ds17 DNA by equilibrium dialysis method (unknown origin).
The nature of data set [14]: Cytotoxicity against human hTERT-BJ cells assessed as reduction in cell viability measured after 72 hrs by SRB assay. In kind it is cell-based. Conditions: read-out: LD50. Background: The SRB assay estimates cell density from bound dye.
Data set [15] in a line: Selectivity ratio of K for TWJ DNA (unknown origin) to K for ds17 DNA (unknown origin).
The test system of the next data set is MDA-MB-231. Description: Antiproliferative activity against human MDA-MB-231 cells assessed as reduction in cell viability measured after 72 hrs by SRB assay. It is filed as functional. Conditions: MDA-MB-231, 72 h, read-out: LD50 (the source's name).
The subject of data set [16] is MCF7. Kind of data set: Antiproliferative activity against human MCF7 cells assessed as reduction in cell viability measured after 72 hrs by SRB assay. It is filed as functional. Particulars: MCF7, 72 h, read-out: LD50 (the source's name).
Data set [17] is described as follows: Binding affinity to TWJ DNA (unknown origin) assessed as equilibrium binding constant at 1:2 DNA to compound ratio after 1 hr by ESI-MS analysis.
A short description of data set [18]: Selectivity index, ratio of LD50 for human hTERT-BJ cells to LD50 for human MDA-MB-231 cells. In kind it is toxicity. Particulars: hTERT-BJ cells versus MDA-MB-231 cells, read-out: Selectivity Index.
A short description of data set [19]: Binding affinity to ds17 DNA (unknown origin) assessed as equilibrium binding constant at 1:2 DNA to compound ratio after 1 hr by ESI-MS analysis.
Data set [20] relates to MCF7. Kind of data set: Induction of DNA damage in human MCF7 cells assessed as gammaH2AX accumulation at 10 times antiproliferative LD50 measured after 72 hrs by DAPI staining-based confocal laser scanning microscopic analysis. In kind it is functional, cell-based.

The source made the active and inactive calls. The calls are words filed in the database; no cut-off is given here.

As for `Cn1c[n+](-c2ccc3ccc4cccc5ccc2c3c45)cn1`, the ΔTm (in general, the change in melting temperature against a reference sample) in data set [1] was determined as 1.5 °C. Besides, in data set [2], the result was inactive. The Ratio came to 22% in [3] and 101% in data set [4].

For the molecule `C[n+]1ccc(-c2c3nc(c(-c4cc[n+](C)cc4)c4ccc([nH]4)c(-c4cc[n+](C)cc4)c4ccc([nH]4)c(-c4cc[n+](C)cc4)c4nc2C=C4)C=C3)cc1`, the thermal shift (ΔTm) in [1] was found to be 22.5 °C; in data set [5], 8 °C; in [6], 12 °C. Moreover, in [7], the Selectivity ratio was 35%. For the same molecule, the Ratio stood at 86% in data set [3] and 8% in data set [4].

Turning to `NCCCNC[C@]12c3ccccc3[C@](CNCCCN)(c3ccccc31)c1cc3ccccc3cc12`, the ΔTm in data set [1] was determined as 0.8 °C. Also, the outcome in [2] was inactive. For the same molecule, the Ratio in [3] came out at 63%; in data set [4] it was 40%.

In the case of `c1cc2c3nc4c(cccc4cc3c1)CNCCOCCNCc1cccc3cc4cccc(c4nc13)CNCCOCCNC2`, the ΔTm in data set [1] stood at 11.6 °C; in data set [5], 4.6 °C; in data set [6] it was 5.5 °C. For the same molecule, the Selectivity ratio in data set [7] was 39%. The Ratio in [3] stood at 35%; in data set [4], 80%.

Take `c1cc2cc(c1)-c1cccc(c1)CNCCN1CCNCc3cccc(c3)-c3cccc(c3)CNCCN(CCNC2)CCNCc2cccc(c2)-c2cccc(c2)CNCC1`: the ΔTm in [1] stood at 17.5 °C; in data set [5], 15.9 °C; in data set [6], 16.6 °C. Also, the Kapp worked out at 4.7 ×10⁴ /M in data set [8] and 6 ×10⁶ /M in data set [10]. Further, the K in [9] was 7.5 ×10³ /M; in data set [17], 3.9 ×10⁶ /M. For the same molecule, the selectivity ratio in data set [11] and in data set [18] was 2 each time. The result (in [2]; in data set [12]; with MCF7 [20]) was Active. The figures for the Selectivity ratio in data set [7], in [13] and in data set [15] were 91%, > 2 and > 2, respectively. Also, the Ratio in [3] was 33%; in data set [4], 109%. The CC50 at 72 h in [14] worked out at 2600 nM. Moreover, the CC50 with MDA-MB-231 came out at 1300 nM; in the data set with MCF7 [16] it was 100 nM. In data set [19], the K result is “inactive”.

Take `c1cc2nc3ccc4cc3cc2cc1CNCCOCCNCc1ccc2nc3ccc(cc3cc2c1)CNCCOCCNC4`: the ΔTm was determined as 23 °C in [1], 17.1 °C in data set [5] and 20.4 °C in data set [6]. The Kapp is 3.8 ×10⁵ /M in data set [8] and 1.4 ×10⁷ /M in data set [10]. The Selectivity ratio in [7] is 84%; in data set [13], > 1; in data set [15], > 4. Besides, the Ratio in [3] came out at 54%; in data set [4] it was 27%. For the same molecule, the CC50 at 72 h in [14] worked out at 1000 nM. Also, the figures for the CC50 in the data set with MDA-MB-231 and in the data set on MCF7 [16] were 2800 nM and 4800 nM, respectively. For the same molecule, the K in data set [17] stood at 1.9 ×10⁹ /M; in [19] it was 3.1 ×10⁴ /M.

As to `COCCOCCOCC[n+]1ccc(-c2c3nc(c(-c4cc[n+](CCOCCOCCOC)cc4)c4ccc([nH]4)c(-c4cc[n+](CCOCCOCCOC)cc4)c4nc(c(-c5cc[n+](CCOCCOCCOC)cc5)c5ccc2[nH]5)C=C4)C=C3)cc1`, the thermal shift (ΔTm) in data set [1] was 11 °C; in data set [5], 4 °C; in [6] it was 7 °C. Also, in [7], the Selectivity ratio was 36%. For the same molecule, the Ratio stood at 72% in [3] and 27% in data set [4].

In the case of `CN(C)CCCNCC12c3ccccc3C(CNCCCN(C)C)(c3ccccc31)c1ccccc12`, the ΔTm in data set [1] came to 0.6 °C. Besides, the outcome in data set [2] was inactive. In addition, the Ratio in [3] amounted to 27%; in data set [4], 100%.

Turning to `c1cc2ccc3cc2cc1CNCCNCCNCc1ccc2ccc(cc2c1)CNCCNCCNC3`, the ΔTm in data set [1] is 4.2 °C; in data set [6], < 5 °C. Moreover, the result in [2] was Active. The Ratio amounted to 46% in data set [3] and 37% in [4].

As for `c1cc2c3cccc(c3c1)CNCCOCCNCc1cccc3c(cccc13)CNCCOCCNC2`, the ΔTm worked out at 10.4 °C in data set [1], 8.5 °C in data set [5] and 8.9 °C in [6]. Also, the results for the Kapp in [8] and in [10] were 5.9 ×10⁵ /M and 8.7 ×10⁶ /M, respectively. In addition, in [2], the outcome was Active. For the same molecule, the Selectivity ratio is 82% in data set [7], > 1 in data set [13] and > 2 in data set [15]. In addition, the Ratio in data set [3] was 42%; in [4] it was 118%. The CC50 at 72 h in [14] was found to be 40 nM. Moreover, the CC50 in the data set with MDA-MB-231 turned out to be 160 nM; with MCF7 [16], 1300 nM. In addition, the K in data set [17] turned out to be 4.7 ×10⁷ /M; in [19], 7.5 ×10⁴ /M.

With `c1cc2ccc3ccc(-[n+]4csc5ccccc54)c4ccc(c1)c2c34`, the ΔTm in data set [1] came out at 0 °C. In addition, the result in [2] was inactive. Besides, the Ratio came to 23% in data set [3] and 100% in data set [4].
